Measured values as given in US12617797B2, “Substituted pyrazolo [1,5-a]pyrimidines having multimodal activity against pain” (ESTEVE PHARMACEUTICALS, S.A., priority 2020, dated 2026).

Assays:
[1] = biological target: Human α2δ-1 subunit of Cav2.2 calcium channel (Homo sapiens, UniProt P54289); assay: Human α2δ-1 subunit of Cav2.2 calcium channel assay ([3H]-gabapentin binding); settings: binding to the α2δ-1 subunit of voltage-gated calcium channels expressed as Ki; + also covers inhibition between 1% and 50%
Chain of Human α2δ-1 subunit of Cav2.2 calcium channel (P54289 25-1103): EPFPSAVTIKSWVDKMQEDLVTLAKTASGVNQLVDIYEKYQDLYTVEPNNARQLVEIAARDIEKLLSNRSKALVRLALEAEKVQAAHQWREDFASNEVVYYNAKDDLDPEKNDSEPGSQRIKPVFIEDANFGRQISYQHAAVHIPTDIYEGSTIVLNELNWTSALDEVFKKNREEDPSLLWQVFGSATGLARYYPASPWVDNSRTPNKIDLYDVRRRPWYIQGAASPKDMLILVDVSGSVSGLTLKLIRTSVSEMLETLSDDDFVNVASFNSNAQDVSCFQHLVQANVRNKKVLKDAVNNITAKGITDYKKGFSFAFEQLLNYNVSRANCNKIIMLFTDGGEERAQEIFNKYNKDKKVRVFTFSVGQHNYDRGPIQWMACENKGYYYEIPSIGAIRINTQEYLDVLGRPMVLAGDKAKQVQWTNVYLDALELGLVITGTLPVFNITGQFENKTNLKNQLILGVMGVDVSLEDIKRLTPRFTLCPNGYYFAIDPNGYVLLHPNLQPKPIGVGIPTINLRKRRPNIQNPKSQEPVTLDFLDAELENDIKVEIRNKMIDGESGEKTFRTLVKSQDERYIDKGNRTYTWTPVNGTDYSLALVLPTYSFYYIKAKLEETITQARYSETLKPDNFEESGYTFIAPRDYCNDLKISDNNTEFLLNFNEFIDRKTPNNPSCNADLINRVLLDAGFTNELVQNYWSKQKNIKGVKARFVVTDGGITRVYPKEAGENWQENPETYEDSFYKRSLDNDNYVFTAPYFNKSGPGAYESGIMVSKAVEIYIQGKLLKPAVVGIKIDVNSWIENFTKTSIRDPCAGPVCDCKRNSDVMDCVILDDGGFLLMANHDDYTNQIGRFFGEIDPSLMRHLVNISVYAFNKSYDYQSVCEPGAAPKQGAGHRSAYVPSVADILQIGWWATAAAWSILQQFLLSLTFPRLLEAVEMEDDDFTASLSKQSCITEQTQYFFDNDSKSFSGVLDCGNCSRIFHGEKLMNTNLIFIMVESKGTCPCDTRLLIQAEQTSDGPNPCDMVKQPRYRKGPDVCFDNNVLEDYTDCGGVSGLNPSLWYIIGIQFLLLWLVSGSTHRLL
Description: Biological Activity Pharmacological Study Human α2δ-1 Subunit of Cav2.2 Calcium Channel Assay
Human α2δ-1 enriched membranes (2.5 μg) were incubated with 15 nM of radiolabeled [^3H]-Gabapentin in assay buffer containing Hepes-KOH 10 mM, pH 7.4. NSB (non specific binding) was measured by adding 10 μM pregabalin. The binding of the test compound was measured at either one concentration (% inhibition at 1 or 10 μM) or five different concentrations to determine affinity values (Ki). After 60 min incubation at 27° C., binding reaction was terminated by filtering through Multiscreen GF/C (Millipore) presoaked in 0.5% polyethyleneimine in Vacuum Manifold Station, followed by 3 washes with ice-cold filtration buffer containing 50 mM Tris-HCl, pH 7.4. Filter plates were dried at 60° C. for 1 h and 30 μL of scintillation cocktail were added to each well before radioactivity reading. Readings were performed in a Trilux 1450 Microbeta radioactive counter (Perkin Elmer).

Human σ1 receptor = biological target: T1, Human σ1 receptor (Homo sapiens, UniProt Q99720); assay: Human σ1 receptor radioligand assay ([3H](+)-pentazocine binding, transfected HEK-293 membranes); settings: binding to σ1 receptor expressed as Ki; + also covers inhibition between 1% and 50%; read-out: σ-1 binding
T1 construct: expressed in transfected cells; host or cells: HEK-293
T1 sequence (Q99720 whole entry): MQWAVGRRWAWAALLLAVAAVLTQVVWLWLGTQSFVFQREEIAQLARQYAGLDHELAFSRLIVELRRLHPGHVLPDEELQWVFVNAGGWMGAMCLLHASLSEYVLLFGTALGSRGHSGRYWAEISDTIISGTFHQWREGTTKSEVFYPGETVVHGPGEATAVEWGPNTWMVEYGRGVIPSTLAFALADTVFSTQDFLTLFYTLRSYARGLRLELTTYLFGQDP
Description: Human σ1 Receptor Radioligand Assay
Transfected HEK-293 membranes (7 μg) were incubated with 5 nM of [^3H](+)-pentazocine in assay buffer containing Tris-HCl 50 mM at pH 8. NBS (non-specific binding) was measured by adding 10 μM haloperidol. The binding of the test compound was measured at either one concentration (% inhibition at 1 or 10 μM) or five different concentrations to determine affinity values (Ki). Plates were incubated at 37° C. for 120 minutes. After the incubation period, the reaction mix was then transferred to MultiScreen HTS, FC plates (Millipore), filtered and plates were washed 3 times with ice-cold 10 mM Tris-HCL (pH7.4). Filters were dried and counted at approximately 40% efficiency in a MicroBeta scintillation counter (Perkin-Elmer) using EcoScint liquid scintillation cocktail.

| SMILES | Ki [1] [nM] | Ki (Human σ1 receptor) [nM] |
| --- | --- | --- |
| COc1cncc(-c2cc3nccc(C4CCCN(Cc5ccccc5)C4)n3n2)c1 (stereo not drawn) [Example 31, 7-(1-Benzylpiperidin-3-yl)-2-(5-methoxypyridin-3-yl)pyrazolo[1,5-a]pyrimidine] | 500 to 5000 | > 1000 |
| COc1cc(-c2cc3nccc(C4CCCN(Cc5ccccc5)C4)n3n2)ccn1 (stereo not drawn) [Example 32, 7-(1-Benzylpiperidin-3-yl)-2-(2-methoxypyridin-4-yl)pyrazolo[1,5-a]pyrimidine] | > 5000 | > 1000 |
| COc1cnccc1-c1cc2nccc(C3CCCN(Cc4ccccc4)C3)n2n1 (stereo not drawn) [Example 33, 7-(1-Benzylpiperidin-3-yl)-2-(3-methoxypyridin-4-yl)pyrazolo[1,5-a]pyrimidine] | 500 to 5000 | > 1000 |
| COc1ccncc1-c1cc2nccc(C3CCCN(Cc4ccccc4)C3)n2n1 (stereo not drawn) [Example 34, 7-(1-Benzylpiperidin-3-yl)-2-(4-methoxypyridin-3-yl)pyrazolo[1,5-a]pyrimidine] | 500 to 5000 | > 1000 |
| c1ccc(CN2CCCC(c3ccnc4c(-c5ccccc5)cnn34)C2)cc1 (stereo not drawn) [Example 35, 7-(1-Benzylpiperidin-3-yl)-3-phenylpyrazolo[1,5-a]pyrimidine] | > 5000 | 500 to 1000 |
| c1ccc(CN2CCCC(c3ccnc4c(-c5ccncc5)cnn34)C2)cc1 (stereo not drawn) [Example 36, 7-(1-Benzylpiperidin-3-yl)-3-(pyridin-4-yl)pyrazolo[1,5-a]pyrimidine] | 500 to 5000 | 500 to 1000 |
| c1ccc(CN2CCCC(c3ccnc4c(-c5cccnc5)cnn34)C2)cc1 (stereo not drawn) [Example 37, 7-(1-Benzylpiperidin-3-yl)-3-(pyridin-3-yl)pyrazolo[1,5-a]pyrimidine] | 500 to 5000 | > 1000 |
| COc1cc(-c2cnn3c(C4CCCN(Cc5ccccc5)C4)ccnc23)ccn1 (stereo not drawn) [Example 38, 7-(1-Benzylpiperidin-3-yl)-3-(2-methoxypyridin-4-yl)pyrazolo[1,5-a]pyrimidine] | 500 to 5000 | > 1000 |
| CCOc1ccc(-c2cnn3c(C4CCCN(Cc5ccccc5)C4)ccnc23)cc1 (stereo not drawn) [Example 39, 7-(1-Benzylpiperidin-3-yl)-3-(4-ethoxyphenyl)pyrazolo[1,5-a]pyrimidine] | > 5000 | > 1000 |
| COc1ncccc1-c1cnn2c(C3CCCN(Cc4ccccc4)C3)ccnc12 (stereo not drawn) [Example 40, 7-(1-Benzylpiperidin-3-yl)-3-(2-methoxypyridin-3-yl)pyrazolo[1,5-a]pyrimidine] | 500 to 5000 | > 1000 |
| Cc1cnc2c(-c3ccncc3)cnn2c1C1CCCN(Cc2ccccc2)C1 (stereo not drawn) [Example 41, 7-(1-Benzylpiperidin-3-yl)-6-methyl-3-(pyridin-4-yl)pyrazolo[1,5-a]pyrimidine] | 500 to 5000 | > 1000 |
| Cc1nn2c(C3CCCN(Cc4ccccc4)C3)ccnc2c1-c1ccncc1 (stereo not drawn) [Example 42, 7-(1-Benzylpiperidin-3-yl)-2-methyl-3-(pyridin-4-yl)pyrazolo[1,5-a]pyrimidine] | 500 to 5000 | > 1000 |
| COc1ncccc1-c1c(C)nn2c(C3CCCN(Cc4ccccc4)C3)ccnc12 (stereo not drawn) [Example 43, 7-(1-Benzylpiperidin-3-yl)-3-(2-methoxypyridin-3-yl)-2-methylpyrazolo[1,5-a]pyrimidine] | 500 to 5000 | > 1000 |
| Cc1nn2c(C3CCCN(Cc4ccccc4)C3)ccnc2c1-c1ccccc1 (stereo not drawn) [Example 44, 7-(1-Benzylpiperidin-3-yl)-2-methyl-3-phenylpyrazolo[1,5-a]pyrimidine] | > 5000 | > 1000 |
| CCOc1ccc(-c2c(C)nn3c(C4CCCN(Cc5ccccc5)C4)ccnc23)cc1 (stereo not drawn) [Example 45, 7-(1-Benzylpiperidin-3-yl)-3-(4-ethoxyphenyl)-2-methylpyrazolo[1,5-a]pyrimidine] | > 5000 | 500 to 1000 |
| COc1cc(-c2c(C)nn3c(C4CCCN(Cc5ccccc5)C4)ccnc23)ccn1 (stereo not drawn) [Example 46, 7-(1-Benzylpiperidin-3-yl)-3-(2-methoxypyridin-4-yl)-2-methylpyrazolo[1,5-a]pyrimidine] | 500 to 5000 | > 1000 |
| Cc1nn2c(C3CCCN(Cc4ccccc4)C3)ccnc2c1-c1ccc(N(C)C)cc1 (stereo not drawn) [Example 47, 4-(7-(1-Benzylpiperidin-3-yl)-2-methylpyrazolo[1,5-a]pyrimidin-3-yl)-N,N-dimethylaniline] | > 5000 | > 1000 |

| SMILES | Ki [1] [nM] | Ki (Human σ1 receptor) [nM] |
| --- | --- | --- |
| Cc1nn2c(C3CCCN(Cc4ccccc4)C3)ccnc2c1-c1ccccc1F (stereo not drawn) [Example 48, 7-(1-Benzylpiperidin-3-yl)-3-(2-fluorophenyl)-2-methylpyrazolo[1,5-a]pyrimidine] | > 5000 | > 1000 |
| Cc1cnccc1-c1c(C)nn2c(C3CCCN(Cc4ccccc4)C3)ccnc12 (stereo not drawn) [Example 49, 7-(1-Benzylpiperidin-3-yl)-2-methyl-3-(3-methylpyridin-4-yl)pyrazolo[1,5-a]pyrimidine] | > 5000 | > 1000 |
| Cc1nn2c(C3CCCN(Cc4ccccc4)C3)ccnc2c1-c1ccnc(F)c1 (stereo not drawn) [Example 50, 7-(1-Benzylpiperidin-3-yl)-3-(2-fluoropyridin-4-yl)-2-methylpyrazolo[1,5-a]pyrimidine] | 500 to 5000 | > 1000 |
| Cc1cc(-c2c(C)nn3c(C4CCCN(Cc5ccccc5)C4)ccnc23)ccn1 (stereo not drawn) [Example 51, 7-(1-Benzylpiperidin-3-yl)-2-methyl-3-(2-methylpyridin-4-yl)pyrazolo[1,5-a]pyrimidine] | 500 to 5000 | 500 to 1000 |
| Cc1nn2c(C3CCCN(Cc4ccccc4)C3)ccnc2c1-c1ccncc1F (stereo not drawn) [Example 52, 7-(1-Benzylpiperidin-3-yl)-3-(3-fluoropyridin-4-yl)-2-methylpyrazolo[1,5-a]pyrimidine] | 500 to 5000 | > 1000 |
| Cc1nn2c(C3CCCN(Cc4ccccc4)C3)ccnc2c1-c1ccnc(C(F)(F)F)c1 (stereo not drawn) [Example 53, 7-(1-Benzylpiperidin-3-yl)-2-methyl-3-(2-(trifluoromethyl)pyridin-4-yl)pyrazolo[1,5-a]pyrimidine] | 500 to 5000 | > 1000 |
| CCc1cc(-c2c(C)nn3c(C4CCCN(Cc5ccccc5)C4)ccnc23)ccn1 (stereo not drawn) [Example 54, 7-(1-Benzylpiperidin-3-yl)-3-(2-ethylpyridin-4-yl)-2-methylpyrazolo[1,5-a]pyrimidine] | 500 to 5000 | > 1000 |
| Cc1nc(-c2cccc(-c3c(C)nn4c(C5CCCN(Cc6ccccc6)C5)ccnc34)c2)no1 (stereo not drawn) [Example 55, 3-(3-(7-(1-Benzylpiperidin-3-yl)-2-methylpyrazolo[1,5-a]pyrimidin-3-yl)phenyl)-5-methyl-1,2,4-oxadiazole] | 500 to 5000 | > 1000 |
| Cc1nnc(-c2cccc(-c3c(C)nn4c(C5CCCN(Cc6ccccc6)C5)ccnc34)c2)o1 (stereo not drawn) [Example 56, 2-(3-(7-(1-Benzylpiperidin-3-yl)-2-methylpyrazolo[1,5-a]pyrimidin-3-yl)phenyl)-5-methyl-1,3,4-oxadiazole] | 500 to 5000 | > 1000 |
| COc1cnccc1-c1c(C)nn2c(C3CCCN(Cc4ccccc4)C3)ccnc12 (stereo not drawn) [Example 57, 7-(1-Benzylpiperidin-3-yl)-3-(3-methoxypyridin-4-yl)-2-methylpyrazolo[1,5-a]pyrimidine] | 500 to 5000 | > 1000 |
| Cc1cnc2c(-c3ccncc3)c(C)nn2c1C1CCCN(Cc2ccccc2)C1 (stereo not drawn) [Example 58, 7-(1-Benzylpiperidin-3-yl)-2,6-dimethyl-3-(pyridin-4-yl)pyrazolo[1,5-a]pyrimidine] | 500 to 5000 | > 1000 |
| Cc1cc(C2CCCN(Cc3ccccc3)C2)n2nc(C)c(-c3ccncc3)c2n1 (stereo not drawn) [Example 59, 7-(1-Benzylpiperidin-3-yl)-2,5-dimethyl-3-(pyridin-4-yl)pyrazolo[1,5-a]pyrimidine] | 500 to 5000 | > 1000 |
| CCc1nn2c(C3CCCN(Cc4ccccc4)C3)ccnc2c1-c1ccncc1 (stereo not drawn) [Example 60, 7-(1-Benzylpiperidin-3-yl)-2-ethyl-3-(pyridin-4-yl)pyrazolo[1,5-a]pyrimidine] | 500 to 5000 | > 1000 |
| CNCc1cn(-c2cccc(-c3c(C)nn4c(C5CCCN(Cc6ccccc6)C5)ccnc34)c2)nn1 (stereo not drawn) [Example 61, 1-(1-(3-(7-(1-Benzylpiperidin-3-yl)-2-methylpyrazolo[1,5-a]pyrimidin-3-yl)phenyl)-1H-1,2,3-triazol-4-yl)-N-methylmethanamine] | 500 to 5000 | > 1000 |
| CNCc1cc(-c2c(C)nn3c(C4CCCN(Cc5ccccc5)C4)ccnc23)ccn1 (stereo not drawn) [Example 62, 1-(4-(7-(1-Benzylpiperidin-3-yl)-2-methylpyrazolo[1,5-a]pyrimidin-3-yl)pyridin-2-yl)-N-methylmethanamine] | 500 to 5000 | > 1000 |
| Cc1cc2nccc(C3CCCN(Cc4ccccc4F)C3)n2n1 (stereo not drawn) [Example 63, 7-(1-(2-Fluorobenzyl)piperidin-3-yl)-2-methylpyrazolo[1,5-a]pyrimidine] | > 5000 | > 1000 |
